Biological target: CHI3L1/galectin-3 (CHI3L1-His and galectin-3-GST) (Homo sapiens, UniProt P36222)
Assay: AlphaLISA, inhibition of CHI3L1/galectin-3 interaction
Type: biochemical
Details: read-out: % inhibition at 100 μM

Chain of CHI3L1/galectin-3 (CHI3L1-His and galectin-3-GST) (P36222 22-383): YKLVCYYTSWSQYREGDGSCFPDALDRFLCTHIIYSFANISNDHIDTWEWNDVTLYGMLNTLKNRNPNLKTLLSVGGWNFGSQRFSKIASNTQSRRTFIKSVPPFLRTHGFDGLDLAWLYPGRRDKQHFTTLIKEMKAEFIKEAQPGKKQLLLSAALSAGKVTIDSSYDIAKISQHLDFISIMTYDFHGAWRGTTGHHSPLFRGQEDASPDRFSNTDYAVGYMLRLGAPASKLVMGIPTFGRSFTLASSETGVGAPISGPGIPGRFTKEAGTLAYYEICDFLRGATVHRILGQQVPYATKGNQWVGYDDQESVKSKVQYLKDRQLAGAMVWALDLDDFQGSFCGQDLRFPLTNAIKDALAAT
Chain of CHI3L1/galectin-3 (CHI3L1-His and galectin-3-GST) (P17931 2-250 partner): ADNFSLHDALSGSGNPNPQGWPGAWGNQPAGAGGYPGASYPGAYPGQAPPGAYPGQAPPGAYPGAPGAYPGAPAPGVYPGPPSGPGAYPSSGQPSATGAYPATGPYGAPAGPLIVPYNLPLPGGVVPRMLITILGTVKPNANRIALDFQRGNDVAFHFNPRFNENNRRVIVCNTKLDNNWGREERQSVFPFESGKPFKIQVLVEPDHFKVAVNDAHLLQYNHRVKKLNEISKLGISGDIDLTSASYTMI

CC(C)c1cccc(-c2ccc3ncn(C)c(=O)c3c2)c1 [3C13]
inhibition at 100 µM: 27.5 ± 3.1%

Source: article doi:10.1101/2025.08.13.670152v1 (biorxiv, 2025)
